According to patent US20230286973A1, “PROTEIN SECRETION INHIBITORS” (KEZAR LIFE SCIENCES, priority 2020, published 2023):

How the values were obtained:
[1] = Liver Microsome Stability Assay (rat); settings: rat liver microsomes, with NADPH, 1.0 uM compound
Experimental: (§1) Stability of a compound was assessed in the presence of liver microsomes from various sources—mouse, rat, monkey and human liver microsomes. 1.0 uM compound, 0.4% DMSO in 0.1 M Potassium Phosphate with 1.0 mg/mL liver microsomes, were incubated at 37° C. with or without 1 mM NADPH. The samples were quenched at 0, and 30 minutes.

[2] = system: PD1-ss+10aa/Gaussia Luciferase; assay: Dox-Induced PD1-ss-Gluc Assay; format: cell-based; settings: 24 hr Dox induction; 293FRT/TO cells; read-out: 24 hr Dox Inducible PD1ssGluc 293FRT/TO: Mean IC50
Method in brief: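 Stable Flp-In 293 T-REx cells carried a doxycycline-inducible construct of Gaussia luciferase fused to the PD1 signal sequence plus 10 amino acids. Cells were plated the day before, then treated with compound dilutions in DMSO/media containing doxycycline at 37 °C, 5% CO2.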

[3] = system: IL-2-FL/Gaussia Luciferase; assay: Dox Induced IL2-FL-Gluc Assay; format: cell-based; settings: for IC50: 24 hr Dox induction, 293FRT/TO cells, read-out: 24 hr Dox Inducible IL2FLGluc 293FRT/TO: Mean IC50; for 24 hr Dox Inducible IL2FLGluc 293FRT/TO: IL2/PD1: ratio of IL2FLGluc IC50 to PD1ssGluc IC50
Method in brief: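 Compounds in DMSO/medium with doxycycline were applied to a 293 T-REx stable line expressing an IL-2 (aa 1-153)–Gaussia luciferase fusion under tetracycline-regulated control, cells seeded one day earlier; incubation at 37 °C, 5% CO2. Structures drawn without stereochemistry were tested as stereoisomer mixtures.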

[4] = system: multiple myeloma cell line U266B1; assay: U266 Cell Viability Assay; format: cell-based, human; settings: Homo sapiens, U-266, 48 h, U266B1 cells, Celltiter-Glo
Method in brief: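 CellTiter-Glo luminescence was read after a 48 h compound exposure (37 °C, 5% CO2) of human U266B1 myeloma cells grown in 10% FBS-supplemented RPMI 1640. Data for structures shown without defined stereochemistry refer to stereoisomer mixtures.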

[5] = Liver Microsome Stability Assay (human); settings: human liver microsomes, with NADPH, 1.0 uM compound
Experimental: as §1

[6] = Liver Microsome Stability Assay (monkey); settings: monkey liver microsomes, with NADPH, 1.0 uM compound
Experimental: as §1

[7] = system: TNFα-FL/Gaussia Luciferase; assay: Dox Induced TNFα-FL-Gluc Assay; format: cell-based; settings: for IC50: 24 hr Dox induction, 293FRT/TO cells, read-out: 24 hr Dox Inducible TNFaFLGluc 293FRT/TO: Mean IC50; for 24 hr Dox Inducible TNFaFLGluc 293FRT/TO: TNF/PD1: ratio of TNFaFLGluc IC50 to PD1ssGluc IC50
Method in brief: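 Compound was added with doxycycline to cells plated a day earlier, incubating at 37° C under 5% CO2. The reporter line is 293 T-REx expressing a TNFα (1-233)–Gaussia luciferase fusion under tetracycline-regulated control.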

[8] = system: HER3-ss+4aa/Gaussia Luciferase; assay: Dox-Induced Her3-ss-Gluc Assay; format: cell-based; settings: 24 hr Dox induction; 293FRT/TO cells; read-out: 24 hr Dox Inducible Her3(ss + 4)Gluc 293FRT/TO: Mean IC50
Method in brief: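 Compounds were diluted in DMSO/media containing doxycycline. They were added to Flp-In 293 T-REx cells plated the previous day, then incubated at 37 °C under 5% CO2. These cells stably express, under T-REx control, Gaussia luciferase fused to the HER3 signal sequence plus 4 amino acids.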

[9] = Liver Microsome Stability Assay (mouse); settings: mouse liver microsomes, with NADPH, 1.0 uM compound
Experimental: as §1

[10] = system: multiple myeloma cell line NCI-H929; assay: H929 Cell Viability Assay; format: cell-based, human; settings: Homo sapiens, NCI-H929, 48 h, NCI-H929 cells, Celltiter-Glo
Method in brief: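 Luminescent CellTiter-Glo read-out of viability after a 48 h exposure (37° C, 5% CO2) of NCI-H929 myeloma cells to compound dilutions in RPMI 1640 plus 10% FBS. Data for structures drawn without stereochemistry refer to stereoisomer mixtures.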

Row | Compound | Liver Microsome Stability (Multiple Species): Rat - % Remaining after 30 min w/NADPH [1] | IC50 [2] | IC50 [3] | 24 hr Dox Inducible IL2FLGluc 293FRT/TO: IL2/PD1 [3] | EC50 [4] | Liver Microsome Stability (Multiple Species): Human - % Remaining after 30 min w/NADPH [5] | Liver Microsome Stability (Multiple Species): Monkey - % Remaining after 30 min w/NADPH [6] | IC50 [7] | 24 hr Dox Inducible TNFaFLGluc 293FRT/TO: TNF/PD1 [7] | IC50 [8] | Liver Microsome Stability (Multiple Species): Mouse - % Remaining after 30 min w/NADPH [9] | EC50 [10]
1 | O=C(Nc1nc([C@H]2CCCN2c2ccc(Cl)cc2)cs1)c1cccn1Cc1ccncc1 [Compound A26, (R)-N-(4-(1-(4-chlorophenyl)pyrrolidin-2-yl)thiazol-2-yl)-1-(pyridin-4-ylmethyl)-1H-pyrrole-2-carboxamide] | 8.78% | 3.15 nM | 6.78 nM | 2.1 | 1170 nM | 5.11% | 3.34% | 158 nM | 50.2 | 9.38 nM | 5.75% | 136 nM
2 | O=C(Nc1nc([C@H]2CCCN2c2ccc([N+](=O)[O-])cc2)cs1)c1cccn1Cc1ccncc1 [Compound A27, (R)-N-(4-(1-(4-nitrophenyl)pyrrolidin-2-yl)thiazol-2-yl)-1-(pyridin-4-ylmethyl)-1H-pyrrole-2-carboxamide] | 0.33% | 57.9 nM | 144 nM | 2.5 | > 25000 nM | 1.61% | 0.51% | 1100 nM | 19.1 | 109 nM | 6.54% | 5790 nM
3 | O=C(Nc1nc([C@H]2CCCN2c2ccc(C(F)(F)F)cc2)cs1)c1cccn1Cc1ccncc1 [Compound A28, (R)-1-(pyridin-4-ylmethyl)-N-(4-(1-(4-(trifluoromethyl)phenyl)pyrrolidin-2-yl)thiazol-2-yl)-1H-pyrrole-2-carboxamide] | 51.5% | 5.73 nM | 10.8 nM | 1.9 | 10100 nM | 16.4% | 3.97% | 137 nM | 23.9 | 11.6 nM | 30.3% | 251 nM
4 | O=C(Nc1nc([C@H]2CCCN2c2cccnn2)cs1)c1cccn1Cc1ccncc1 [Compound A29, (R)-N-(4-(1-(pyridazin-3-yl)pyrrolidin-2-yl)thiazol-2-yl)-1-(pyridin-4-ylmethyl)-1H-pyrrole-2-carboxamide] | 4.6% | 534 nM | 2220 nM | 4.1 | > 25000 nM | 0.59% | 0.39% | 13100 nM | 24.4 | 1130 nM | 1.4% | > 25000 nM
5 | NCc1ccc(N2CCC[C@@H]2c2csc(NC(=O)c3cccn3Cc3ccncc3)n2)cc1 [Compound A44, (R)-N-(4-(1-(4-(aminomethyl)phenyl)pyrrolidin-2-yl)thiazol-2-yl)-1-(pyridin-4-ylmethyl)-1H-pyrrole-2-carboxamide] | 30% | 167 nM | 408 nM | 2.4 | 6950 nM | 28.6% | 26% | 3880 nM | 23.3 | 415 nM | 62.6% | 3310 nM
6 | CC(=O)NCc1ccc(N2CCC[C@@H]2c2csc(NC(=O)c3cccn3Cc3ccncc3)n2)cc1 [Compound A45, (R)-N-(4-(1-(4-(acetamidomethyl)phenyl)pyrrolidin-2-yl)thiazol-2-yl)-1-(pyridin-4-ylmethyl)-1H-pyrrole-2-carboxamide] | 0.29% | 16.4 nM | 55.5 nM | 3.4 | > 25000 nM | 0.08% | 0.1% | 220 nM | 13.4 | 34.3 nM | 0.76% | 425 nM
7 | CC(=O)Nc1ccc(N2CCC[C@@H]2c2csc(NC(=O)c3cccn3Cc3ccncc3)n2)cc1 [Compound A46, (R)-N-(4-(1-(4-acetamidophenyl)pyrrolidin-2-yl)thiazol-2-yl)-1-(pyridin-4-ylmethyl)-1H-pyrrole-2-carboxamide] | 9.73% | 3 nM | 4.11 nM | 1.4 | > 25000 nM | 3.12% | 2.39% | 52 nM | 17.3 | 6.51 nM | 4.16% | 79 nM
8 | CC(=O)N(C)c1ccc(N2CCC[C@@H]2c2csc(NC(=O)c3cccn3Cc3ccncc3)n2)cc1 [Compound A47] | 1.17% | 43.6 nM | 82.3 nM | 1.9 | > 25000 nM | 1.82% | 0.06% | 554 nM | 12.7 | 83.5 nM | 0.02% | 1210 nM
